The subject of one assay is GAMG. Nature of the assay: Anticancer activity against human GAMG cells assessed as cell growth inhibition. The assay is classed as functional, cell-based.
A further assay relates to SK-N-BE(2). The assay is described as follows: Anticancer activity against human SKNBE2 cells assessed as cell growth inhibition. The assay is classed as functional, cell-based.
For the next assay, the system named is Staphylococcus aureus. The assay is described as follows: Antibacterial activity against Staphylococcus aureus assessed as bacterial growth inhibition. Type of assay: functional.
Another assay relates to Escherichia coli. Nature of the assay: Antibacterial activity against Escherichia coli assessed as bacterial growth inhibition. The assay is classed as functional.
A further assay relates to MCF7. The assay is described as follows: Growth inhibition of human MCF7 cells. Type of assay: functional.
The next assay has as its system MDA-MB-435. The assay is described as follows: Anticancer activity against human MDA-MB-435 cells assessed as cell growth inhibition by MTT assay. The assay is classed as functional, cell-based.
The subject of the next assay is RKO. Nature of the assay: Anticancer activity against human RKO cells assessed as cell growth inhibition by MTT assay. The assay is classed as functional, cell-based. For orientation: Tetrazolium dyes change colour on reduction, which living cells bring about.
The species entered for another assay is Homo sapiens. Nature of the assay: Inhibition of ERK (unknown origin) at 100 uM by western blot assay relative to control.
The test system of a further assay is A549. Nature of the assay: Anticancer activity against human A549 cells assessed as cell growth inhibition. Type of assay: functional, cell-based.
In assay [1] the target is Aldo-keto reductase family 1 member B1 (Homo sapiens, UniProt P15121). The assay is described as follows: Inhibition of AR (unknown origin) assessed as glycation activity.
The next assay relates to T-24. The assay is described as follows: Anticancer activity against human T24 cells assessed as cell growth inhibition incubated for 24 hrs by MTT assay. The assay is classed as functional, cell-based. The following applies: T-24, 24 h.
The test system of a further assay is MGC-803. The assay is described as follows: Anticancer activity against human MGC-803 cells assessed as cell growth inhibition incubated for 24 hrs by MTT assay. The following applies: MGC-803, 24 h. Type of assay: functional, cell-based.
Assay [2] deals with High affinity nerve growth factor receptor (Homo sapiens, UniProt P04629). The assay is described as follows: Inhibition of TrkA (unknown origin).
Assay [3] has as its target Vascular endothelial growth factor receptor 1 (Homo sapiens, UniProt P17948). The assay is described as follows: Inhibition of VEGFR1 (unknown origin) in presence of ATP.
Assay [4] has as its target Cyclin-dependent kinase 1 (Homo sapiens, UniProt P06493). Nature of the assay: Inhibition of human CDK1 using Biotinaminohexyl-Ala-Arg-Arg-Pro-Met-Ser-Pro-Lys-LysLys-Ala-CONH2 peptide as substrate incubated for 20 to 30 mins by scintillation counter analysis.
The target of assay [5] is Cyclin-dependent kinase 2 (Homo sapiens, UniProt P24941). The assay is described as follows: Inhibition of human CDK2 […]-Pro-Met-Ser-Pro-Lys-LysLys-Ala-CONH2 peptide as substrate incubated for 30 to 60 mins by scintillation counter analysis.
Assay [6] deals with Mycobacterium tuberculosis. The assay is described as follows: Antitubercular activity against Mycobacterium tuberculosis H37Rv strain assessed as bacterial growth inhibition. The assay is classed as functional.
A further assay concerns Streptococcus pyogenes. Nature of the assay: Antibacterial activity against Streptococcus pyogenes assessed as bacterial growth inhibition. Type of assay: functional.
For another assay, the system named is Pseudomonas aeruginosa. The assay is described as follows: Antibacterial activity against Pseudomonas aeruginosa assessed as bacterial growth inhibition. Type of assay: functional.

These results are taken from ChEMBL document CHEMBL5252532, “Oxindole: A chemical prism carrying plethora of therapeutic benefits” (Eur J Med Chem, 2016).

≈ marks a conversion by molar mass, not a printed value. Bounds are passed on as bounds.

Chain of Vascular endothelial growth factor receptor 1 (P17948 whole entry): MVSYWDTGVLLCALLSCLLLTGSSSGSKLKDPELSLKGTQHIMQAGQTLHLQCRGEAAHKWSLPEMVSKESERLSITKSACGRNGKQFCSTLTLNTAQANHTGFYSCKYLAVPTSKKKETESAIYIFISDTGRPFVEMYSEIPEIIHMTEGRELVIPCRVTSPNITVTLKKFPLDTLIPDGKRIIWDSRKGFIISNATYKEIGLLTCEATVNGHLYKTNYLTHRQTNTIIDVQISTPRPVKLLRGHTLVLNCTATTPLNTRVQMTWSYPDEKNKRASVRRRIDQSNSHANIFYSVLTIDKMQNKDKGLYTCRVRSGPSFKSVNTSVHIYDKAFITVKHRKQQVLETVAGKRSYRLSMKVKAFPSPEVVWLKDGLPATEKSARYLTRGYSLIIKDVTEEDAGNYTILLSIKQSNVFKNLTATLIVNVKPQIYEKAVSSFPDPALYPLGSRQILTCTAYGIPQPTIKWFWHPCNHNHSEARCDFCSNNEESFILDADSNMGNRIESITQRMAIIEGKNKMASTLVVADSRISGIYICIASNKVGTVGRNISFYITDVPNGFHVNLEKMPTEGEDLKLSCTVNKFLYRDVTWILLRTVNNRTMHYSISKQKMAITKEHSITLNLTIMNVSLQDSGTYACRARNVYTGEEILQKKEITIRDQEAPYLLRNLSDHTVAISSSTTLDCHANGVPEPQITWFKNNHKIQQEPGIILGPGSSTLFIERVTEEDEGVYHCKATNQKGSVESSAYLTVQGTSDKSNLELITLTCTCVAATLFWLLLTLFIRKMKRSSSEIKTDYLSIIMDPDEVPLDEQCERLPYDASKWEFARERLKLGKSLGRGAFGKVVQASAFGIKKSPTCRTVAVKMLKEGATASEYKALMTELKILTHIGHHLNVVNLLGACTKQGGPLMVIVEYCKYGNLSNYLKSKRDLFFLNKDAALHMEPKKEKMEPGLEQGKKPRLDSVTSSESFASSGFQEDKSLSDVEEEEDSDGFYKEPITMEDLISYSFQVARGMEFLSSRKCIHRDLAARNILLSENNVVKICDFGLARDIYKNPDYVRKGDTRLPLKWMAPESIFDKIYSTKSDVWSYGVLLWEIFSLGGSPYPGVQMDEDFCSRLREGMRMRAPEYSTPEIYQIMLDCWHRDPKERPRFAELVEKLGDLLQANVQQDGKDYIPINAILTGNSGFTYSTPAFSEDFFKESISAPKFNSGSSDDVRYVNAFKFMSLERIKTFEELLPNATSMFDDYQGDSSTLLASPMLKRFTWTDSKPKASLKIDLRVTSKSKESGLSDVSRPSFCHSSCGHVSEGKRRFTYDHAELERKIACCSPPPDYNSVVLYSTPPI
Chain of Cyclin-dependent kinase 1 (P06493 whole entry): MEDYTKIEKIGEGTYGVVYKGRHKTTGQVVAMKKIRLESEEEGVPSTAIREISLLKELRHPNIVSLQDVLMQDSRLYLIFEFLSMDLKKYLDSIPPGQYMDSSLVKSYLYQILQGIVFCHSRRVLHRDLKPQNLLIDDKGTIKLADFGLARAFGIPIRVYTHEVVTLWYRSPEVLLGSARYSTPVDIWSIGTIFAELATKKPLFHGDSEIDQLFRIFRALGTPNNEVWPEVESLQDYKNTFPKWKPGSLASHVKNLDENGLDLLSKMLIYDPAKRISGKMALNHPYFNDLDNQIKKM
Chain of High affinity nerve growth factor receptor (P04629 whole entry): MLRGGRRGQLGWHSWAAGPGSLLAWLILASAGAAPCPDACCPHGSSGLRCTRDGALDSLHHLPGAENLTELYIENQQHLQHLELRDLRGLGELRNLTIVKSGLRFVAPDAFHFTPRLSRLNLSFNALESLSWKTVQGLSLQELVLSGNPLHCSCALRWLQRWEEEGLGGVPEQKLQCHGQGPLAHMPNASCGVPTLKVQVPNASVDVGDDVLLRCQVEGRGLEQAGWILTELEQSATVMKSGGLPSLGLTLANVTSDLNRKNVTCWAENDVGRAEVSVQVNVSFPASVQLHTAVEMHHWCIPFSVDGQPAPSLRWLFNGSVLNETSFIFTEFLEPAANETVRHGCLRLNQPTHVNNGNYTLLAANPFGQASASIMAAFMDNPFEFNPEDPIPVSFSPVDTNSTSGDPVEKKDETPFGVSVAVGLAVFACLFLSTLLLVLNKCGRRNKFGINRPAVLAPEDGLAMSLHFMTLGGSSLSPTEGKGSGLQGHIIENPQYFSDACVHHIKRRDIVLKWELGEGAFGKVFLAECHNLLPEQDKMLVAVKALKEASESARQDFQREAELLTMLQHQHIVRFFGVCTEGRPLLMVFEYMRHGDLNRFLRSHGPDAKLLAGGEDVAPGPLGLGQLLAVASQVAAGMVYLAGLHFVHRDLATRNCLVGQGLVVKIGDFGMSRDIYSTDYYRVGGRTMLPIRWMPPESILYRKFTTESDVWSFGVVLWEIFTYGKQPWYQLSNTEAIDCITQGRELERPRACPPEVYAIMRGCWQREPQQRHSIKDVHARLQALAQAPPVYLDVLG

Broadly, the IC50 is the concentration that inhibits the measured activity by half. For the molecule `COC(=O)C1=CO[C@@H](C)[C@H]2CN3CC[C@]4(C(=O)Nc5ccccc54)[C@@H]3C[C@H]12`, the IC50 with GAMG amounted to 12.3 µM; with SK-N-BE(2) it was 20 µM.

As to `CC1(C)CC(=O)C2=C(C1)NC(=S)NC21C(=O)Nc2ccc(Br)cc21` (stereo unspecified), the MIC in the assay with Staphylococcus aureus and in the assay on Escherichia coli was 500 µg throughout.

As a reminder, the GI50 is the concentration that inhibits growth by half. In turn, `CN1C(=O)O[C@]2(C[C@H]1c1ccccc1)C(=O)Nc1ccccc12` gave a GI50 in the assay with MCF7 of 2.6 µM.

Take `COc1cc[nH]c1/C=C1\C(=O)Nc2ccc([N+](=O)[O-])c(N3CC[C@@H](N)C3)c21`: the IC50 in the assay with MDA-MB-435 and in the assay with RKO was less than 10 µM each time.

For orientation: inhibition means the share of the control response that was lost under treatment. A high value points to a response far below the control. In the assay listed under Homo sapiens, `O=C1Nc2ccccc2C1=O` displayed an inhibition of 35%.

`O=C1Cc2cc(O)ccc2N1` registered an inhibition in the assay listed under Homo sapiens of 35%.

Consider `O=C1Nc2ncccc2C12CCN(Cc1ccccc1OC(F)(F)F)CC2`, for which the IC50 in the assay on A549 amounted to 0.05 µM.

Regarding `O=C1Nc2ccccc2/C1=C/c1cccc(Cl)c1`, in assay [1], the IC50 was determined as 150 µM.

As to `CC(=O)O[C@H]1CC[C@@]2(C)C(=CC[C@@H]3[C@@H]2CC[C@]2(C)C4=C(C#N)C(=N)OC5(C(=O)N(Cc6c(F)cccc6F)c6ccccc65)C4C[C@@H]32)C1` (stereo partly specified), the IC50 stood at 4.43 µM in the assay with T-24 and 8.45 µM in the assay with MGC-803.

Molecule `O=C1Nc2ccccc2/C1=C/Nc1ccc(-n2nccn2)cc1` came in with an IC50 in [2] of 0.008 µM.

On to `CC(=O)O[C@H]1CC[C@@]2(C)C(=CC[C@@H]3[C@@H]2CC[C@]2(C)C4=C(C#N)C(=N)OC5(C(=O)N(Cc6ccc(C)cc6)c6ccccc65)C4C[C@@H]32)C1` (stereo partly specified), for which the IC50 in the assay with T-24 is 4.43 µM; in the assay with MGC-803, 8.45 µM.

With `Cc1cc(CCC(=O)O)c(/C=C2\C(=O)Nc3ccccc32)[nH]1`, the IC50 in assay [3] was found to be 0.096 µM.

On to `O=C1Nc2ccc3ncsc3c2/C1=C/Nc1ccc(S(=O)(=O)NCCOCCO)cc1`, for which the IC50 worked out at 0.00054 µM in assay [4] and 0.012 µM in assay [5].

For `Cc1ccc(O)c(/C=C2\C(=O)Nc3ccccc32)c1`, the IC50 in assay [1] was 195 µM.

As for `C[C@@H]1O[C@@H](OC[C@H]2O[C@@H](Oc3c(-c4ccc(O)c(O)c4)oc4cc(O)cc(O)c4c3=O)[C@H](O)[C@@H](O)[C@@H]2O)[C@H](O)[C@H](O)[C@H]1O` [RUTIN], the IC50 in assay [1] stood at 295 µM.

Consider `Cc1ccc(CN2C(=O)/C(=N/NC(=O)c3ccccc3)c3cc(C)ccc32)cc1`, for which the MIC in assay [6] was determined as 25 µg/mL (≈ 65.2 µM).

With `Cc1ccc(S(=O)(=O)N2CCN(c3ccc(/C=C4/C(=O)Nc5ccccc54)cc3)CC2)cc1`, the MIC in the assay on Staphylococcus aureus (Staphylococcus aureus, read-out: MIC) was 25 µg/mL (≈ 54.4 µM); in the assay on Streptococcus pyogenes, 25 µg/mL (≈ 54.4 µM); in the assay with Escherichia coli (Escherichia coli, read-out: MIC), 25 µg/mL (≈ 54.4 µM); in the assay on Pseudomonas aeruginosa, 25 µg/mL (≈ 54.4 µM).
